# According to article PMC12670405, “Second-Generation AURKA-Targeting PROTACs: Structural Optimization toward in Vivo Degradation in Neuroblastoma” (Journal of Medicinal Chemistry, 2025):
# Tests used:
# Test in all cases: KINOMEscan scanMAX
# Format in all cases: binding
# PRKG1 = target: T1, PRKG1 (Homo sapiens, UniProt Q13976); conditions: read-out: Percent Control
# T1 construct: purchased Eurofins Discovery (DiscoverX KINOMEscan scanMAX)
# Protocol: (§1) The kinome-wide binding assay was performed by Eurofins Discovery using the scanMAX screening platform. More information can be found on the Eurofins Discovery Web site.
# [1] = target: T2, ABL1(M351T)-phosphorylated (Homo sapiens, UniProt P00519, M351T); conditions: read-out: Percent Control
# T2 construct: purchased Eurofins Discovery (DiscoverX KINOMEscan scanMAX)
# Protocol: as §1
# KIT(V559D) = target: T3, KIT(V559D) (Homo sapiens, UniProt P10721, V559D); conditions: read-out: Percent Control
# T3 construct: purchased Eurofins Discovery (DiscoverX KINOMEscan scanMAX)
# Protocol: as §1
# FLT3(N841I) = target: T4, FLT3(N841I) (Homo sapiens, UniProt P36888, N841I); conditions: read-out: Percent Control
# T4 construct: purchased Eurofins Discovery (DiscoverX KINOMEscan scanMAX)
# Protocol: as §1
# STK16 = target: T5, STK16 (Homo sapiens, UniProt O75716); conditions: read-out: Percent Control
# T5 construct: purchased Eurofins Discovery (DiscoverX KINOMEscan scanMAX)
# Protocol: as §1
# SNARK = target: T6, SNARK (Homo sapiens, UniProt Q9H093); conditions: read-out: Percent Control
# T6 construct: purchased Eurofins Discovery (DiscoverX KINOMEscan scanMAX)
# Protocol: as §1
# PIK3CD = target: T7, PIK3CD (Homo sapiens, UniProt O00329); conditions: read-out: Percent Control
# T7 construct: purchased Eurofins Discovery (DiscoverX KINOMEscan scanMAX)
# Protocol: as §1
# PRKCD = target: T8, PRKCD (Homo sapiens, UniProt Q05655); conditions: read-out: Percent Control
# T8 construct: purchased Eurofins Discovery (DiscoverX KINOMEscan scanMAX)
# Protocol: as §1
# TSSK3 = target: T9, TSSK3 (Homo sapiens, UniProt Q96PN8); conditions: read-out: Percent Control
# T9 construct: purchased Eurofins Discovery (DiscoverX KINOMEscan scanMAX)
# Protocol: as §1
# STK36 = target: T10, STK36 (Homo sapiens, UniProt Q9NRP7); conditions: read-out: Percent Control
# T10 construct: purchased Eurofins Discovery (DiscoverX KINOMEscan scanMAX)
# Protocol: as §1
# CAMK1 = target: T11, CAMK1 (Homo sapiens, UniProt Q14012); conditions: read-out: Percent Control
# T11 construct: purchased Eurofins Discovery (DiscoverX KINOMEscan scanMAX)
# Protocol: as §1
# ULK2 = target: T12, ULK2 (Homo sapiens, UniProt Q8IYT8); conditions: read-out: Percent Control
# T12 construct: purchased Eurofins Discovery (DiscoverX KINOMEscan scanMAX)
# Protocol: as §1
# CDC2L5 = target: T13, CDC2L5 (Homo sapiens, UniProt Q14004); conditions: read-out: Percent Control
# T13 construct: purchased Eurofins Discovery (DiscoverX KINOMEscan scanMAX)
# Protocol: as §1
# SGK2 = target: T14, SGK2 (Homo sapiens, UniProt Q9HBY8); conditions: read-out: Percent Control
# T14 construct: purchased Eurofins Discovery (DiscoverX KINOMEscan scanMAX)
# Protocol: as §1
# RET(M918T) = target: T15, RET(M918T) (Homo sapiens, UniProt P07949, M918T); conditions: read-out: Percent Control
# T15 construct: purchased Eurofins Discovery (DiscoverX KINOMEscan scanMAX)
# Protocol: as §1
# FAK = target: T16, FAK (Homo sapiens, UniProt Q05397); conditions: read-out: Percent Control
# T16 construct: purchased Eurofins Discovery (DiscoverX KINOMEscan scanMAX)
# Protocol: as §1
# VPS34 = target: T17, VPS34 (Homo sapiens, UniProt Q8NEB9); conditions: read-out: Percent Control
# T17 construct: purchased Eurofins Discovery (DiscoverX KINOMEscan scanMAX)
# Protocol: as §1
# PKN2 = target: T18, PKN2 (Homo sapiens, UniProt Q16513); conditions: read-out: Percent Control
# T18 construct: purchased Eurofins Discovery (DiscoverX KINOMEscan scanMAX)
# Protocol: as §1
# PFTK1 = target: T19, PFTK1 (Homo sapiens, UniProt O94921); conditions: read-out: Percent Control
# T19 construct: purchased Eurofins Discovery (DiscoverX KINOMEscan scanMAX)
# Protocol: as §1
# [2] = target: T20, RPS6KA5(Kin.Dom.2-C-terminal) (Homo sapiens, UniProt O75582); conditions: read-out: Percent Control
# T20 construct: RPS6KA5(Kin.Dom.2-C-terminal); purchased Eurofins Discovery (DiscoverX KINOMEscan scanMAX)
# Protocol: as §1
# LATS1 = target: T21, LATS1 (Homo sapiens, UniProt O95835); conditions: read-out: Percent Control
# T21 construct: purchased Eurofins Discovery (DiscoverX KINOMEscan scanMAX)
# Protocol: as §1
# BMPR1B = target: T22, BMPR1B (Homo sapiens, UniProt O00238); conditions: read-out: Percent Control
# T22 construct: purchased Eurofins Discovery (DiscoverX KINOMEscan scanMAX)
# Protocol: as §1
# EPHB2 = target: T23, EPHB2 (Homo sapiens, UniProt P29323); conditions: read-out: Percent Control
# T23 construct: purchased Eurofins Discovery (DiscoverX KINOMEscan scanMAX)
# Protocol: as §1
# VEGFR2 = target: T24, VEGFR2 (Homo sapiens, UniProt P35968); conditions: read-out: Percent Control
# T24 construct: purchased Eurofins Discovery (DiscoverX KINOMEscan scanMAX)
# Protocol: as §1
# CDK4-cyclinD3 = target: T25, CDK4-cyclinD3 (Homo sapiens, UniProt P11802); conditions: read-out: Percent Control
# T25 construct: purchased Eurofins Discovery (DiscoverX KINOMEscan scanMAX)
# Protocol: as §1
# DAPK1 = target: T26, DAPK1 (Homo sapiens, UniProt P53355); conditions: read-out: Percent Control
# T26 construct: purchased Eurofins Discovery (DiscoverX KINOMEscan scanMAX)
# Protocol: as §1
# DYRK1B = target: T27, DYRK1B (Homo sapiens, UniProt Q9Y463); conditions: read-out: Percent Control
# T27 construct: purchased Eurofins Discovery (DiscoverX KINOMEscan scanMAX)
# Protocol: as §1
# MELK = target: T28, MELK (Homo sapiens, UniProt Q14680); conditions: read-out: Percent Control
# T28 construct: purchased Eurofins Discovery (DiscoverX KINOMEscan scanMAX)
# Protocol: as §1
# TLK1 = target: T29, TLK1 (Homo sapiens, UniProt Q9UKI8); conditions: read-out: Percent Control
# T29 construct: purchased Eurofins Discovery (DiscoverX KINOMEscan scanMAX)
# Protocol: as §1
# FLT3(ITD,F691L) = tested on: FLT3(ITD,F691L)
# Protocol: as §1
# TEC = target: T30, TEC (Homo sapiens, UniProt P42680); conditions: read-out: Percent Control
# T30 construct: purchased Eurofins Discovery (DiscoverX KINOMEscan scanMAX)
# Protocol: as §1
# FGFR2 = target: T31, FGFR2 (Homo sapiens, UniProt P21802); conditions: read-out: Percent Control
# T31 construct: purchased Eurofins Discovery (DiscoverX KINOMEscan scanMAX)
# Protocol: as §1
# LOK = target: T32, LOK (Homo sapiens, UniProt O94804); conditions: read-out: Percent Control
# T32 construct: purchased Eurofins Discovery (DiscoverX KINOMEscan scanMAX)
# Protocol: as §1
# ERK5 = target: T33, ERK5 (Homo sapiens, UniProt Q13164); conditions: read-out: Percent Control
# T33 construct: purchased Eurofins Discovery (DiscoverX KINOMEscan scanMAX)
# Protocol: as §1
# T3 sequence (P10721 26-976 V559D): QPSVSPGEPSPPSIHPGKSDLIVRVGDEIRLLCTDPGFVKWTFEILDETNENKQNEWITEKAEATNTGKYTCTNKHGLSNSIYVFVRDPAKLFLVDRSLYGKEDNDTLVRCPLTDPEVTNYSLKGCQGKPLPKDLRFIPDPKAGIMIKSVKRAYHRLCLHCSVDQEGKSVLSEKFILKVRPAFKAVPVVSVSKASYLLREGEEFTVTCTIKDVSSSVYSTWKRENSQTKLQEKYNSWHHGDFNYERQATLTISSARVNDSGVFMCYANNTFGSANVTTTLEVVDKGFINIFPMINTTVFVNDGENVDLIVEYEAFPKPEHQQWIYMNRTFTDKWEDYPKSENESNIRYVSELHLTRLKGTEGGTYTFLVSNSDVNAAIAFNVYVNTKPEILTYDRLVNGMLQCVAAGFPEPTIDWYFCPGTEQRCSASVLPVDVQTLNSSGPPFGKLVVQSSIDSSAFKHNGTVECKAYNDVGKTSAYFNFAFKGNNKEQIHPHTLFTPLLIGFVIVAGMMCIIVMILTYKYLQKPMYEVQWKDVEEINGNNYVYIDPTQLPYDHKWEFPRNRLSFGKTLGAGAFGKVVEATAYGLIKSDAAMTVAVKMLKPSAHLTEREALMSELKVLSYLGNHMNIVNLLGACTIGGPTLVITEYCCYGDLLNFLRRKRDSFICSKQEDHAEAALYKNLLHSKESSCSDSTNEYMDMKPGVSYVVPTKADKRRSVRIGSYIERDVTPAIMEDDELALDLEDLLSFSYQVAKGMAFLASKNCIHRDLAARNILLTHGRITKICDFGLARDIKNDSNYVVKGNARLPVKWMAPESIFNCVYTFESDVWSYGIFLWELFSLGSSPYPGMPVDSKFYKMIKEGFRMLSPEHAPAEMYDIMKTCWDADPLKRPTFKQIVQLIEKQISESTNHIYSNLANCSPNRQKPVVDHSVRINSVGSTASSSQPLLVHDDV
# T28 sequence (Q14680 whole entry): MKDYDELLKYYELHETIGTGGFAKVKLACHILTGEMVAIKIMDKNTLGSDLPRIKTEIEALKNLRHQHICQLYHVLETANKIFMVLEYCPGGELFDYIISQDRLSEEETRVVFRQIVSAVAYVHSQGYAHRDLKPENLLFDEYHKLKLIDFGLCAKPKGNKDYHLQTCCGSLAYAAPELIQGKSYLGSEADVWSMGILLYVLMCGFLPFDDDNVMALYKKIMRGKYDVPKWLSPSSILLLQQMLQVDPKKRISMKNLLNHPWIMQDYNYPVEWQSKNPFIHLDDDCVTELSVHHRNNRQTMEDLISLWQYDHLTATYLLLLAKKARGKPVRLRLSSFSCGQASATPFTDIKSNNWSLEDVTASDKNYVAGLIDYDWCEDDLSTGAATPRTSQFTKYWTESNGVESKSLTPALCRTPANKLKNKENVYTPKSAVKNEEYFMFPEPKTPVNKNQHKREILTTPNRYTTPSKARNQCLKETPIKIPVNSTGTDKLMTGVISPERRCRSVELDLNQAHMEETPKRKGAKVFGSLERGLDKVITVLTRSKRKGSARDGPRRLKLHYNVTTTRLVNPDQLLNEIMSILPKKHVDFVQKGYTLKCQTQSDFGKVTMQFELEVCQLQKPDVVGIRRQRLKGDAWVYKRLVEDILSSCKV
# T7 sequence (O00329 whole entry): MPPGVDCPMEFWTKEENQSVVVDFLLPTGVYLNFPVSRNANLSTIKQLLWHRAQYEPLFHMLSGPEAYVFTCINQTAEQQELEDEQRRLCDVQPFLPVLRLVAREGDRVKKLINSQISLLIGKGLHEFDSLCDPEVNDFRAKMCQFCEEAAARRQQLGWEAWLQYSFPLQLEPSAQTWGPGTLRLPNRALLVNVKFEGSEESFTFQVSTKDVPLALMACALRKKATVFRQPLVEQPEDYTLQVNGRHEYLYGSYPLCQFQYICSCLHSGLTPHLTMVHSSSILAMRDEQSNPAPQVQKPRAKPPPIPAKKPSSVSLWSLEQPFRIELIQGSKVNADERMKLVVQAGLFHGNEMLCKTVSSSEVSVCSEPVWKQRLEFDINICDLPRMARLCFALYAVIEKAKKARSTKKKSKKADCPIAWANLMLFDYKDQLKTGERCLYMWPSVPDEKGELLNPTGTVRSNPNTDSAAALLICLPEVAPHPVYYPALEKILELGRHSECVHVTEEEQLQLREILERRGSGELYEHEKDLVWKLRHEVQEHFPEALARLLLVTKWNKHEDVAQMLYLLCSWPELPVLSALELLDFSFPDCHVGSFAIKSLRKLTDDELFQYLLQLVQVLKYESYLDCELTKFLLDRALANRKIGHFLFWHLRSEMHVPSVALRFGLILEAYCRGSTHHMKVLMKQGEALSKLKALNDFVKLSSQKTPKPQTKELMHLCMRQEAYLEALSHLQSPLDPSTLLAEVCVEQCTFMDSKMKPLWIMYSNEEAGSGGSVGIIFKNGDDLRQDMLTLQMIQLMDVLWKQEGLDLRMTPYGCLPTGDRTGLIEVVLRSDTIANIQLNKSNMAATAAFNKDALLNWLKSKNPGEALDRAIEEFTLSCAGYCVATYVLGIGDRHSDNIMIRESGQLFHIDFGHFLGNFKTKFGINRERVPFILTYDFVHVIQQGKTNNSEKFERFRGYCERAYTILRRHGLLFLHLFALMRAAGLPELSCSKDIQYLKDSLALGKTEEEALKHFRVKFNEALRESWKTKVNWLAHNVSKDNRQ
# T16 sequence (Q05397 whole entry): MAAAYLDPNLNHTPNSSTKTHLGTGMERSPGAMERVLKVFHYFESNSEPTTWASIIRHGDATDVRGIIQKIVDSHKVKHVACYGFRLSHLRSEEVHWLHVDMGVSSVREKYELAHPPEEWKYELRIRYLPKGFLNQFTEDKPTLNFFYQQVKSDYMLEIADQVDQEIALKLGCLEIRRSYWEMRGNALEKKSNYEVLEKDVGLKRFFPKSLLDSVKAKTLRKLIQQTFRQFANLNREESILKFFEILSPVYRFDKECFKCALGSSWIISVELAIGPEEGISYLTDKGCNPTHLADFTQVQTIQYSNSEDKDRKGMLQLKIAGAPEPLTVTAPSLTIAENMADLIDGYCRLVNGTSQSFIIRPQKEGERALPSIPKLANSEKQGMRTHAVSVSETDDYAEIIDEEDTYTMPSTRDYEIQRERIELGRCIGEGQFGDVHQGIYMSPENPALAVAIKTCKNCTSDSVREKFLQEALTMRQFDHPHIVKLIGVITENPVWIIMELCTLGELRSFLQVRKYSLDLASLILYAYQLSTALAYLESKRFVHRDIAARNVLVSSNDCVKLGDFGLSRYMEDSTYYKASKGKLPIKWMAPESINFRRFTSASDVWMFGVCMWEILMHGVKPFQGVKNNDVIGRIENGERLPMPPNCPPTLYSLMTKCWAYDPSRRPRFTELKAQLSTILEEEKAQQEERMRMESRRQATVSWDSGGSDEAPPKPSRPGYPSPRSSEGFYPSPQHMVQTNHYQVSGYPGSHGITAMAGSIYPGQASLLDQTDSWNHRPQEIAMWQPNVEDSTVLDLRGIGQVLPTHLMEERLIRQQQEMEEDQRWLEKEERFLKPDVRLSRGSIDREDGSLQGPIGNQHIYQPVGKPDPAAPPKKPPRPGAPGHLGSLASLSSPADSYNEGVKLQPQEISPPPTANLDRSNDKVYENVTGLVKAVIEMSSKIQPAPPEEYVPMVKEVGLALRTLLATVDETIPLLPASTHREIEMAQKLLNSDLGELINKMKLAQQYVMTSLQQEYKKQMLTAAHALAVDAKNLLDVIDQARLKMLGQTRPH
# T19 sequence (O94921 whole entry): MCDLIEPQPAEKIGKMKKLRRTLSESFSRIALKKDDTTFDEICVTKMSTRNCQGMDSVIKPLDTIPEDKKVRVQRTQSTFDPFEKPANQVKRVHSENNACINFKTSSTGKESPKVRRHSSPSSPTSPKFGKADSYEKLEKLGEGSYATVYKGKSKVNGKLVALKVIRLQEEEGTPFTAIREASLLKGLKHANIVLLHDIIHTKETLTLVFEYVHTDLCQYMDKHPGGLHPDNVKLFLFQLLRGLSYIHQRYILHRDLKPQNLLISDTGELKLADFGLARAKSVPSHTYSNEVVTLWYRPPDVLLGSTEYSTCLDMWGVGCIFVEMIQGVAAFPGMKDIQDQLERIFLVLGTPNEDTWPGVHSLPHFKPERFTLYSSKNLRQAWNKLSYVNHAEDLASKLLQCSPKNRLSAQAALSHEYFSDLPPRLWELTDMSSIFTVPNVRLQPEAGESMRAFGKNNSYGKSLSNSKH
# T25 sequence (P11802 whole entry): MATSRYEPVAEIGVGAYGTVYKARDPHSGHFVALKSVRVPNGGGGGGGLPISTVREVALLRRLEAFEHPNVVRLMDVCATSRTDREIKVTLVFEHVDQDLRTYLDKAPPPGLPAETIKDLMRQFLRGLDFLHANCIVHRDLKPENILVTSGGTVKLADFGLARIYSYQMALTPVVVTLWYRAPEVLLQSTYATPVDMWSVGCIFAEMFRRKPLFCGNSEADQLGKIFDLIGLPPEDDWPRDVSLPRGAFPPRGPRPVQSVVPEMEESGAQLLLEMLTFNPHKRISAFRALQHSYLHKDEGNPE
# T25 sequence (P30281 whole entry partner): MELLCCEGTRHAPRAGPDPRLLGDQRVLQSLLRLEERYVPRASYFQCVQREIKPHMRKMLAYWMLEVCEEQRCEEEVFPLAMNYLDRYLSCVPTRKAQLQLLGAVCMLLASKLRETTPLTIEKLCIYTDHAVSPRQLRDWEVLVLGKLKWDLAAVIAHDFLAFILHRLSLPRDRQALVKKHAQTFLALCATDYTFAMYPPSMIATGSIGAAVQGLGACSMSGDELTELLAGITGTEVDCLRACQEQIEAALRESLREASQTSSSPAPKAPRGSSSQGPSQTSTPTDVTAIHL
# T9 sequence (Q96PN8 whole entry): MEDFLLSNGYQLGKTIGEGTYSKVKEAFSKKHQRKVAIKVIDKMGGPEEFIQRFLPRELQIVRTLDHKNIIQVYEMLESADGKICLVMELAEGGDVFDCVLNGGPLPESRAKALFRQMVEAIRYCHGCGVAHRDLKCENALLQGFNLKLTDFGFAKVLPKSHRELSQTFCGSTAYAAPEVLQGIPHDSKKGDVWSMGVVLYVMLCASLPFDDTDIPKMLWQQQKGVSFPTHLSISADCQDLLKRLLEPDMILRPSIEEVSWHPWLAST
smiles,measurement,setting,value
Cc1cc(Nc2ccc(F)c(CC3(C(=O)N4CCC(F)(CN5CCN(c6ccc(N7CCC(=O)NC7=O)cn6)CC5)CC4)CCN(Cc4cccc(Cl)c4F)CC3)n2)n[nH]1 [SK5527],remaining binding at 0.1 µM,PRKG1; 100 nM,92%
same,remaining binding at 1 µM,PRKG1; 1000 nM,100%
same,remaining binding at 0.1 µM,[1]; 100 nM,70%
same,remaining binding at 1 µM,[1]; 1000 nM,34%
same,remaining binding at 0.1 µM,KIT(V559D); 100 nM,100%
same,remaining binding at 1 µM,KIT(V559D); 1000 nM,100%
same,remaining binding at 0.1 µM,FLT3(N841I); 100 nM,83%
same,remaining binding at 1 µM,FLT3(N841I); 1000 nM,76%
same,remaining binding at 0.1 µM,STK16; 100 nM,100%
same,remaining binding at 1 µM,STK16; 1000 nM,69%
same,remaining binding at 0.1 µM,SNARK; 100 nM,86%
same,remaining binding at 1 µM,SNARK; 1000 nM,76%
same,remaining binding at 0.1 µM,PIK3CD; 100 nM,69%
same,remaining binding at 1 µM,PIK3CD; 1000 nM,87%
same,remaining binding at 0.1 µM,PRKCD; 100 nM,100%
same,remaining binding at 1 µM,PRKCD; 1000 nM,100%
same,remaining binding at 0.1 µM,TSSK3; 100 nM,95%
same,remaining binding at 1 µM,TSSK3; 1000 nM,99%
same,remaining binding at 0.1 µM,STK36; 100 nM,71%
same,remaining binding at 1 µM,STK36; 1000 nM,94%
same,remaining binding at 0.1 µM,CAMK1; 100 nM,100%
same,remaining binding at 1 µM,CAMK1; 1000 nM,98%
same,remaining binding at 0.1 µM,ULK2; 100 nM,89%
same,remaining binding at 1 µM,ULK2; 1000 nM,78%
same,remaining binding at 0.1 µM,CDC2L5; 100 nM,82%
same,remaining binding at 1 µM,CDC2L5; 1000 nM,73%
same,remaining binding at 0.1 µM,SGK2; 100 nM,93%
same,remaining binding at 1 µM,SGK2; 1000 nM,83%
same,remaining binding at 0.1 µM,RET(M918T); 100 nM,95%
same,remaining binding at 1 µM,RET(M918T); 1000 nM,38%
same,remaining binding at 0.1 µM,FAK; 100 nM,90%
same,remaining binding at 1 µM,FAK; 1000 nM,77%
same,remaining binding at 0.1 µM,VPS34; 100 nM,92%
same,remaining binding at 1 µM,VPS34; 1000 nM,39%
same,remaining binding at 0.1 µM,PKN2; 100 nM,81%
same,remaining binding at 1 µM,PKN2; 1000 nM,81%
same,remaining binding at 0.1 µM,PFTK1; 100 nM,100%
same,remaining binding at 1 µM,PFTK1; 1000 nM,95%
same,remaining binding at 0.1 µM,[2]; 100 nM,100%
same,remaining binding at 1 µM,[2]; 1000 nM,96%
same,remaining binding at 0.1 µM,LATS1; 100 nM,100%
same,remaining binding at 1 µM,LATS1; 1000 nM,100%
same,remaining binding at 0.1 µM,BMPR1B; 100 nM,77%
same,remaining binding at 1 µM,BMPR1B; 1000 nM,72%
same,remaining binding at 0.1 µM,EPHB2; 100 nM,74%
same,remaining binding at 1 µM,EPHB2; 1000 nM,95%
same,remaining binding at 0.1 µM,VEGFR2; 100 nM,85%
same,remaining binding at 1 µM,VEGFR2; 1000 nM,65%
same,remaining binding at 0.1 µM,CDK4-cyclinD3; 100 nM,100%
same,remaining binding at 1 µM,CDK4-cyclinD3; 1000 nM,100%
same,remaining binding at 0.1 µM,DAPK1; 100 nM,85%
same,remaining binding at 1 µM,DAPK1; 1000 nM,81%
same,remaining binding at 0.1 µM,DYRK1B; 100 nM,98%
same,remaining binding at 1 µM,DYRK1B; 1000 nM,74%
same,remaining binding at 0.1 µM,MELK; 100 nM,99%
same,remaining binding at 1 µM,MELK; 1000 nM,87%
same,remaining binding at 0.1 µM,TLK1; 100 nM,88%
same,remaining binding at 1 µM,TLK1; 1000 nM,74%
same,Percent Control,"FLT3(ITD,F691L); 100 nM",100%
same,Percent Control,"FLT3(ITD,F691L); 1000 nM",75%
same,remaining binding at 0.1 µM,TEC; 100 nM,91%
same,remaining binding at 1 µM,TEC; 1000 nM,69%
same,remaining binding at 0.1 µM,FGFR2; 100 nM,100%
same,remaining binding at 1 µM,FGFR2; 1000 nM,90%
same,remaining binding at 0.1 µM,LOK; 100 nM,100%
same,remaining binding at 1 µM,LOK; 1000 nM,100%
same,remaining binding at 0.1 µM,ERK5; 100 nM,100%
same,remaining binding at 1 µM,ERK5; 1000 nM,93%
